{"source": "patent US20210002262A1", "about": "“CYANOPYRROLIDINES AS USP30 INHIBITORS AND FIBROSIS TREATMENT” (MISSION THERAPEUTICS LIMITED, priority 2018, published 2021)", "key": {"USP30": {"target": "T1, USP30 (Homo sapiens, UniProt Q70CQ3)", "T1 sequence (Q70CQ3 1-517)": "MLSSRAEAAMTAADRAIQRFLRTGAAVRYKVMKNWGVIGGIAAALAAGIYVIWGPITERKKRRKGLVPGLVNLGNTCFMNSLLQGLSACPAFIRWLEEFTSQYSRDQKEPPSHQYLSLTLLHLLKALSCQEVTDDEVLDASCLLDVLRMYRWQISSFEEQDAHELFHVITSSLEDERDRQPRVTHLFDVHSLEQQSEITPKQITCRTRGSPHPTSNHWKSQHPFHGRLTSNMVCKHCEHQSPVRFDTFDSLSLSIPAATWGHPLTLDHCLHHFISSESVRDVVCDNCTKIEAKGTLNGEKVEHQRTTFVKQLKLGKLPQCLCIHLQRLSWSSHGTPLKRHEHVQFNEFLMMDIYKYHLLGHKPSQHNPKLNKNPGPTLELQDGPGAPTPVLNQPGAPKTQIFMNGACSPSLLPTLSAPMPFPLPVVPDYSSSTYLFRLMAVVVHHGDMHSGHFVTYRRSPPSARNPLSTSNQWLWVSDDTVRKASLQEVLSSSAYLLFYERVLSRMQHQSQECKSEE", "assay": "USP30 biochemical IC50 assay", "details": "Examples of WO 2017/103614", "description": "Dilution plates were prepared at 21 times the final concentration (2100 μM for a final concentration of 100 μM) in 50% DMSO in a 96-well polypropylene V-bottom plate (Greiner #651201). A typical 8-point dilution series would be 100, 30, 10, 3, 1, 0.3, 0.1, 0.03 μM final. Reactions were performed in duplicate in black 384 well plates (small volume, Greiner 784076) in a final reaction volume of 21 μl. Either 1 μl of 50% DMSO or diluted compound was added to the plate. USP30 was diluted in reaction buffer (40 mM Tris, pH 7.5, 0.005% Tween 20, 0.5 mg/ml BSA, 5 mM beta-mercaptoethanol) to the equivalent of 0.05 μl/well and 10 μl of diluted USP30 was added to the compound. Enzyme and compound were incubated for 30 min at room temp. Reactions were initiated by the addition of 50 nM of TAMRA labelled peptide linked to ubiquitin via an iso-peptide bond as fluorescence polarisation substrate. Reactions were read immediately after addition of substrate and following a 2-hour incubation at room temperature. Readings were performed on a Pherastar Plus (BMG Labtech). λ Excitation 540 nm; λ Emission 590 nm."}, "diet-induced NAFLD/NASH": {"system": "diet-induced NAFLD/NASH", "assay": "Diet-induced model of NAFLD/NASH", "format": "in vivo, mice", "details": "8 weeks", "description": "Mice were fed Amylin-diet (D09100301, Research Diets, US; 40% fat (18% trans-fat), 40% carbohydrate (20% fructose) and 2% cholesterol) for 37 weeks. Liver biopies were harvested and mice were randomization into treatment groups based on liver Colla1 quantification. Three weeks following biopsy surgery, study animals were dosed orally (P.O.) with either; Vehicle (0.5% HPMC/0.5% PVP/0.1% SDS nanosuspension), MT#1 @ 15 mg/kg QD or MT#1 @ […] QD […] or with Elafibranor @ 30 mg/kg QD (positive control) for eight (8) weeks. A control group of age- and sex-matched mice fed lean chow diet ad libitum were also administered vehicle (P.O) over the same 8 (eight) week period. Following the full dosing schedule, mice were sacrificed, whole livers resected and weighed, fixed in paraformaldehyde before being paraffin embedded. H&E stained slides were then prepared and the average % fractional area of lipid vacuoles (steatosis) determined for each section (@ 20×objective) using Visiomorph software (Visophram, Denmark). The average % fractional area was multiplied by the total liver weight to determine the total liver lipid content per animal. Values expressed as mean of n=9-12+SEM. Dunnett's test one-factor linear model. **: P<0.01, ***: P<0.001 compared to DIO-NASH Vehicle.\nSummary of fibrosis stage scores of pre- and post-study liver biopsies harvested from the diet-induced NAFLD/NASH study. Fibrosis stage scores are determined by assessment of picosirius red stained liver sections for relative appearance and location of collagen staining, where; 0=No staining, 1=Perisinusoidal or periportal, 2=Perisinusoidal and periportal and […]=Bridging collagen staining observed. For each group of animals with higher (worsening), same or lower (improvement) in score at post-compared to pre-study is indicated by the height of the bar. One-sided Fisher's exact test with Bonferroni correction. No differences at significance level 0.05."}, "[1]": {"system": "Unilateral ureteral obstruction (UUO) kidney fibrosis", "assay": "Unilateral ureteral obstructive kidney disease model (UUO)", "format": "in vivo", "details": "for In life mortality / collagen (picrosirius red staining): UUO", "from_the_text": "In this study, adult C57B16 female mice at 7 to 8 weeks of age with average weight of around 18 to 20 g were used. To complete the ureteral obstruction, the abdominal cavity was exposed via a midline incision and the left ureter was ligated at two points with 4-0 silk and dissected. Successful unilateral ureteral obstruction was later confirmed by observation of dilation of the renal pelvis due to hydronephrosis.\nAt harvest, mice were anesthetised and both kidneys were harvested; the contralateral kidney serves as control for the UUO kidney. The kidneys were dissected along median line into two parts, of which one side was fixed in formaldehyde, for paraffin embedding and the other was snap frozen for protein or RNA isolation.\nFormalin fixed tissue were embedded in paraffin blocks and cut into 5 μm sections. All damaged kidneys, 5 contralateral kidneys from each group and 3 sham kidneys were analysed (in total n=80 kidney samples). Picrosirius Red and α-SMA stain was performed to evaluate fibrotic changes and myofibroblast activation. Analysis was performed by a pathology trained technical staff member, without knowledge of the animal group assignment. High magnification images were taken of each slide an analysed for the surface area covered by the stain."}, "[2]": {"system": "Bleomycin-induced lung fibrosis", "assay": "Bleomycin-induced lung fibrosis model", "details": "for In life mortality: oral, days 7 to 21, bleomycin 1.5 U/kg", "protocol": "Treatment group animals (n=10/group) received 1.5 U/kg of clinical bleomycin via oropharyngeal route on day 0 under inhalant anaesthesia. Animals were monitored for tolerance of the bleomycin administration procedure and subsequently bodyweights of all mice were recorded at least 3 times per week during the study. […] All treatments were administered orally.\nAt day 21, lungs were harvested from each animal and weighed, followed by fixation in 10% neutral buffered formalin (NBF) for histopathological analysis. The lung samples were processed and embedded with all lobes from each mouse in one paraffin block. Coronal sections through the four major lobes were stained with Masson's Trichrome. For each animal, consecutive lung fields were examined at 200×magnification in a raster pattern using a 20×objective lens and a 10×ocular lens. […] The Fibrotic Index was calculated as the sum of the modified Ashcroft field scores divided by the number of fields examined."}}, "note": "pIC50: −log10 of the molar value. Entries after “also recorded” stand apart in the source; their conditions may differ.", "data": [{"molecule": "N#Cc1cccc(-c2nnc(C(=O)NC[C@H]3CCN(C#N)C3)o2)c1", "note": "[Example 68, (R)-5-(3-cyanophenyl)-N-((1-cyanopyrrolidin-3-yl)methyl)-1,3,4-oxadiazole-2-carboxamide]", "values": [{"measurement": "pIC50", "setting": "USP30", "result": "> 8.00"}, {"measurement": "total liver lipid content, reduction", "setting": "diet-induced NAFLD/NASH; NASH animals, MT#1 15 mg/kg BID (P.O.), compared to DIO-NASH Vehicle", "result": "statistically significant"}, {"measurement": "total liver lipid content", "setting": "diet-induced NAFLD/NASH; NASH animals, P.O., dose dependence", "result": "dose-dependent reduction"}, {"measurement": "liver steatosis", "setting": "diet-induced NAFLD/NASH; diet-induced NAFLD/NASH, P.O., Elafibranor 30 mg/kg QD", "result": "statistically significant reduction"}, {"measurement": "fibrotic stage scores (picosirius red stained liver sections, post- compared to pre-study biopsy)", "setting": "diet-induced NAFLD/NASH; diet-induced NAFLD/NASH, P.O., Elafibranor 30 mg/kg QD, listed as MT#1", "result": "Neither MT#1 or Elafibranor (positive control) significantly improved; also recorded: did not significantly improve"}, {"measurement": "In life mortality", "setting": "[1]; 5 mg/kg MT#1 nanosuspension BID PO, days 0 to 10", "result": 10, "unit": "%"}, {"measurement": "collagen (picrosirius red staining)", "setting": "[1]; 15 mg/kg BID MT#1", "result": "Statistically significant decreases"}, {"measurement": "In life mortality", "setting": "[1]; 15 mg/kg MT#1 nanosuspension BID PO, days 0 to 10", "result": 0, "unit": "%"}, {"measurement": "collagen (picrosirius red staining)", "setting": "[1]; 50 mg/kg BID MT#1", "result": "Statistically significant decreases"}, {"measurement": "In life mortality", "setting": "[1]; 50 mg/kg MT#1 nanosuspension BID PO, days 0 to 10", "result": 10, "unit": "%"}, {"measurement": "collagen deposition as measured by picrosirius red staining", "setting": "[1]; UUO, 5, 15, 50 mg/kg BID PO, days 0 to 10", "result": "dose dependent decrease"}, {"measurement": "In life mortality", "setting": "[2]; 5 mg/kg MT#1 nanosuspension BID", "result": 10, "unit": "%"}, {"measurement": "In life mortality", "setting": "[2]; 15 mg/kg MT#1 nanosuspension BID", "result": 10, "unit": "%"}, {"measurement": "fibrosis as assessed by the modified Ashcroft score, effect compared to vehicle", "setting": "[2]; 50 mg/kg BID oral, one-way ANOVA + Tukey", "result": "statistically significant effect compared to vehicle"}, {"measurement": "In life mortality", "setting": "[2]; 50 mg/kg MT#1 nanosuspension BID", "result": 0, "unit": "%"}, {"measurement": "fibrosis as assessed by the modified Ashcroft score (collagen deposition, septae thickening)", "setting": "[2]; dose ranging 5, 15, 50 mg/kg BID oral, days 7 to 21, harvest day 21", "result": "dose dependent reduction"}]}]}
